Test [1] has as its system Vaccinia virus (WR strain). Also on record: species or system mice. The note with it: mouse, in vivo.
For another test, the system named is vaccinia virus. The class given is in vivo, mice. The note with it: more vigorous rubbing in; treatment continued until death.
The test system of test [2] is Vaccinia virus (WR strain). Also on record: species or system mice. The conditions noted are these: mouse, in vivo. This is another data set of the same source.

The values below come from patent publication US8173709B2, “Anti-infective methods for treating pathogen-induced disordered tissues” (priority 1999, dated 2012).

“Also recorded” adds a separate entry of the source. Like-named read-outs stand apart in the source and are kept apart here.

On to benzalkonium chloride, for which, in test [1], the Survivors/Total is given as 0/10 and the protection from death entry was “No protection from death”. The “benefit in terms of survival or suppressing lesion severity” value in the test on vaccinia virus is recorded as “no benefit”. Further, in test [2], the Survivors/Total is given as 0/10; the “mean day of death / survival time compared to water” value is “longer than those respective groups treated with water, but the results were not statistically significant; also recorded: slightly longer survival times”; the protection from death entry is on record as “No protection from death”.
